Assay results taken from patent publication US4278658A, “Deodorant composition” (priority 1978, dated 1981).

Legend:
lipoxidase (ECl.12.1.13) = target: T1, lipoxidase (ECl.12.1.13) (Glycine max, UniProt P08170); experiment: Lipoxidase test: inhibition of oxidation of linoleic acid by lipoxidase; assay type: biochemical; set-up: inhibition: concentration or dose not given beside the values; conditions: for inhibition at 0.5 % strength / inhibition: read-out: LIC (lipoxidase inhibiting capacity)
T1 sequence (P08170 1-839): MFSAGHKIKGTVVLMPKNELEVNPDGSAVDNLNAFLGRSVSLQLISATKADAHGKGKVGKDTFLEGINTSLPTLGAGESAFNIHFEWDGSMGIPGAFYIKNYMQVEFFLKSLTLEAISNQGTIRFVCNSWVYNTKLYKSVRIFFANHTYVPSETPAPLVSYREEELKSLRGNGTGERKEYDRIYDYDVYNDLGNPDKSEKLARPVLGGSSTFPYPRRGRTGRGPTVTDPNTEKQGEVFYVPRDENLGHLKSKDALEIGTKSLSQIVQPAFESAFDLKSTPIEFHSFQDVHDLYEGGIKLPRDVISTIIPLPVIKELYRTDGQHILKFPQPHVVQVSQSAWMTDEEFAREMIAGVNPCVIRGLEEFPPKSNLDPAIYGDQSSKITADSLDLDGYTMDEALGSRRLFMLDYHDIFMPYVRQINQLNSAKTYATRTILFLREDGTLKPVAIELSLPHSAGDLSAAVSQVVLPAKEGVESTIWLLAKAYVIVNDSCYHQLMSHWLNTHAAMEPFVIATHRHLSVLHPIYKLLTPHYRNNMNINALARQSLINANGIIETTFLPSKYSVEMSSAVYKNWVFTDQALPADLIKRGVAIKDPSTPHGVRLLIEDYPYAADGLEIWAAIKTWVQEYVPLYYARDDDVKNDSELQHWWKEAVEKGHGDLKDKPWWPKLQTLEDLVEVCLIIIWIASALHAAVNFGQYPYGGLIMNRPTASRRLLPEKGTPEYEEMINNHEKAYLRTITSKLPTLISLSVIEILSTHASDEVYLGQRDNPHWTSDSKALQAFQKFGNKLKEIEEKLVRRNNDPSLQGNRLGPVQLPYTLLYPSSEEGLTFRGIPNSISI

[1] = Morpholine test: depression of the partial vapour pressure of morpholine beyond Raoult's Law; conditions: morpholine 0.25 g + material 1 g, 37° C., 30 minutes, headspace GC
[2] = % inhibition = 100 (S1-S2)/S1, 0.5% by weight solution of material in ethanol in test substrate, borate buffer pH 9.0, 234 nm

| Compound | LIC (lipoxidase inhibiting capacity) (lipoxidase (ECl.12.1.13); [2]) [%] | RVR (Raoult variance ratio) [1] | LIC (lipoxidase inhibiting capacity) (lipoxidase (ECl.12.1.13); pH 9) [%] | inhibition at 0.5 % strength (lipoxidase (ECl.12.1.13); pH 9) [%] | inhibition (lipoxidase (ECl.12.1.13); pH 9) [%] |
| --- | --- | --- | --- | --- | --- |
| Dimyrcetol | 16 | 1.22 |  |  |  |
| i-Nonyl formate |  | 1.49 | 19 |  |  |
| i-Nonyl acetate | 50 | 0.83 |  |  |  |
| CC(=O)c1ccc2ccccc2c1 [β-Methyl naphthyl ketone] |  | 0.96 |  | 100 |  |
| CC(=O)OC1CCC(C(C)(C)C)CC1 (stereo not drawn) [p-t-Butylcyclohexyl acetate] |  | 0.98 |  |  | 54 |
| Cc1ccc(C(C)C)cc1O [Carvacrol] |  | 1.43 |  | 32 |  |
| CC1COCc2cc3c(cc21)C(C)(C)C(C)C3(C)C (stereo not drawn) [1,3,4,6,7,8-Hexahydro-4,6,6,7,8,8-hexamethyl cyclopenta-α-2-benzopyran] |  |  |  |  | 100 |
| O=c1ccc2ccccc2o1 [Coumarin] |  | 1.22 |  |  | 58 |
| Tetrahydromuguol |  | 1.23 | 24 |  |  |
| C/C=C\c1ccc(O)c(OC)c1 [iso-Eugenol] |  | 1.48 |  | 100 |  |
| CCOC(=O)c1ccccc1C(=O)OCC [Diethyl phthalate] |  | 1.20 |  | 79 |  |
| CCCCCCC(CCOC(C)=O)OC(C)=O (stereo not drawn) [Nonanediol-1,3-diacetate] |  | 1.17 |  |  | 33 |
| CCCCCC1CCC(=O)O1 (stereo not drawn) [Nonanolide-1:4] |  | 0.87 |  |  | 92 |
| CC(C)CCOC(=O)c1ccccc1O [iso-Amyl salicylate] |  | 1.24 |  |  | 95 |
| O=C(OCc1ccccc1)c1ccccc1O [Benzyl salicylate] |  | 1.58 |  | 0 |  |
| CCC(C)(C)C1CCC(=O)CC1 [p-t-Amyl cyclohexanone] |  | 1.10 |  |  | 50 |
| OCCc1ccccc1 [Phenylethyl alcohol] |  | 1.24 |  |  | 22 |
| CCCCCCCC1CCCC1=O (stereo not drawn) [2-n-Heptylcyclopentanone] |  | 1.05 |  |  | 56 |
| CCOc1cc(C=O)ccc1O [Ethyl vanillin] |  | 1.43 |  | 100 |  |
| CC(=O)OC1CCCCC1C(C)(C)C (stereo not drawn) [o-t-Butylcyclohexyl acetate] |  | 1.08 |  |  | 52 |
| CC1(C)CCCC2(C)C1CCC1(C)OCCC12 (stereo not drawn) [3a-Methyl-dodecahydro-6,6,9a-trimethylnaphtho(2,1-b)furan] |  | 1.30 |  |  | 58 |
| CC(C=O)Cc1ccc(C(C)(C)C)cc1 (stereo not drawn) [p-t-Butyl-α-methyl hydrocinnamic aldehyde] |  |  |  |  | 74 |
